{
  "source": "patent US11957687B2",
  "about": "(REGENERON PHARMACEUTICALS, INC., priority 2019, dated 2024)",
  "note": "Several values for one entry are separate records, joined by “and”; a condition that tells them apart may be missing. Identical values can stand only once.",
  "data": [
    {"target": "HSD17B13 (Homo sapiens (Human), UniProt Q7Z5P4)", "sequence (Q7Z5P4 other isoform, or with tags, fused parts or gaps)": "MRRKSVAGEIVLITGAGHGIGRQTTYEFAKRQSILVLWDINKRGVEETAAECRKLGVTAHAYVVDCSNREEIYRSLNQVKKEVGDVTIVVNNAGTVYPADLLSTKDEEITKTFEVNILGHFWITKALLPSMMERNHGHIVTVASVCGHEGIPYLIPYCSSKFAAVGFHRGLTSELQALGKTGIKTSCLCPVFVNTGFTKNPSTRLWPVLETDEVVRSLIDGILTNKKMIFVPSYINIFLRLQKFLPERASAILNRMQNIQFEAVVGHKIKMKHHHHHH", "assay": "HSD17B13 enzymatic inhibition assay (150 nM or 50 nM HSD17B13)", "format": "biochemical", "conditions": "50 nM HSD17B13; read-out: Inhibition of 50 nM of HSD17B13 IC50", "values": [
      {"compound": "O=C(NC(c1ccccc1)c1ccc(C2CCOC2)cc1)c1ccc(C(F)(F)F)[nH]c1=O", "note": "(centres unmarked) [Compound 86, N-(phenyl(4-(tetrahydrofuran-3-yl)phenyl)methyl)-2-oxo-6-(trifluoromethyl)-1,2-dihydropyridine-3-carboxamide]", "IC50": "1940 nM"},
      {"compound": "O=C(NC(c1ccccc1)c1ccc(C2=CCOC2)cc1)c1ccc(C(F)(F)F)[nH]c1=O", "note": "(centres unmarked) [Compound 87, N-((4-(2,5-dihydrofuran-3-yl)phenyl)(phenyl)methyl)-2-oxo-6-(trifluoromethyl)-1,2-dihydropyridine-3-carboxamide]", "IC50": "1130 nM"},
      {"compound": "O=C(NC(c1ccccc1)c1ccc(N2CCNCC2)cc1)c1ccc(C(F)(F)F)[nH]c1=O", "note": "(centres unmarked) [Compound 88, N-(phenyl(4-(piperazin-1-yl)phenyl)methyl)-2-oxo-6-(trifluoromethyl)-1,2-dihydropyridine-3-carboxamide]", "IC50": "> 10000 nM"},
      {"compound": "O=C(NC(c1ccccc1)c1ccc2c(c1)OCCC2)c1ccc(C(F)(F)F)[nH]c1=O", "note": "(centres unmarked) [Compound 89, N-(chroman-7-yl(phenyl)methyl)-2-oxo-6-(trifluoromethyl)-1,2-dihydropyridine-3-carboxamide]", "IC50": "1090 nM"},
      {"compound": "O=C(NC(c1ccccc1)c1ccc2c(c1)CCC2)c1ccc(C(F)(F)F)[nH]c1=O", "note": "(centres unmarked) [Compound 90, N-((2,3-dihydro-1H-inden-5-yl)(phenyl)methyl)-2-oxo-6-(trifluoromethyl)-1,2-dihydropyridine-3-carboxamide]", "IC50": "520 nM"},
      {"compound": "O=C(NC(c1ccccc1)c1ccc2c(c1)CCO2)c1ccc(C(F)(F)F)[nH]c1=O", "note": "(centres unmarked) [Compound 91, N-((2,3-dihydrobenzofuran-5-yl)(phenyl)methyl)-2-oxo-6-(trifluoromethyl)-1,2-dihydropyridine-3-carboxamide]", "IC50": "920 nM"},
      {"compound": "O=C(NC(c1ccccc1)c1ccc(-c2cncnc2)cc1)c1ccc(C(F)(F)F)[nH]c1=O", "note": "(centres unmarked) [Compound 92, N-(phenyl(4-(pyrimidin-5-yl)phenyl)methyl)-2-oxo-6-(trifluoromethyl)-1,2-dihydropyridine-3-carboxamide]", "IC50": "2140 nM"},
      {"compound": "CN1CCN(c2ccc(C(NC(=O)c3ccc(C(F)(F)F)[nH]c3=O)c3ccccc3)cc2)CC1", "note": "(centres unmarked) [Compound 95, N-((4-(4-methylpiperazin-1-yl)phenyl)(phenyl)methyl)-2-oxo-6-(trifluoromethyl)-1,2-dihydropyridine-3-carboxamide]", "IC50": "1460 nM and 350 nM"},
      {"compound": "O=C(NC(c1ccccc1)c1ccc(N2CCN(CC(F)(F)F)CC2)cc1)c1ccc(C(F)(F)F)[nH]c1=O", "note": "(centres unmarked) [Compound 96, N-(phenyl(4-(4-(2,2,2-trifluoroethyl)piperazin-1-yl)phenyl)methyl)-2-oxo-6-(trifluoromethyl)-1,2-dihydropyridine-3-carboxamide]", "IC50": "1740 nM"},
      {"compound": "O=C(NC(c1ccccc1)c1ccc(-c2ncccn2)cc1)c1ccc(C(F)(F)F)[nH]c1=O", "note": "(centres unmarked) [Compound 97, 2-oxo-N-(phenyl(4-(pyrimidin-2-yl)phenyl)methyl)-6-(trifluoromethyl)-1,2-dihydropyridine-3-carboxamide]", "IC50": "2300 nM"},
      {"compound": "NCc1ccc(C(NC(=O)c2ccc(C(F)(F)F)[nH]c2=O)c2ccccc2)cc1", "note": "(centres unmarked) [Compound 98, N-((4-(aminomethyl)phenyl)(phenyl)methyl)-2-oxo-6-(trifluoromethyl)-1,2-dihydropyridine-3-carboxamide]", "IC50": "> 10000 nM"},
      {"compound": "O=C(NC(c1ccccc1)c1ccc(C2COC2)cc1)c1ccc(C(F)(F)F)[nH]c1=O", "note": "(centres unmarked) [Compound 99, N-((4-(oxetan-3-yl)phenyl)(phenyl)methyl)-2-oxo-6-(trifluoromethyl)-1,2-dihydropyridine-3-carboxamide]", "IC50": "2720 nM"},
      {"compound": "O=C(NC(c1ccccc1)c1ccc(-c2ccccn2)cc1)c1ccc(C(F)(F)F)[nH]c1=O", "note": "(centres unmarked) [Compound 100, 2-oxo-N-(phenyl(4-(pyridin-2-yl)phenyl)methyl)-6-(trifluoromethyl)-1,2-dihydropyridine-3-carboxamide]", "IC50": "740 nM"},
      {"compound": "O=C(NC(c1ccccc1)c1ccc(-c2cnccn2)cc1)c1ccc(C(F)(F)F)[nH]c1=O", "note": "(centres unmarked) [Compound 101, 2-oxo-N-(phenyl(4-(pyrazin-2-yl)phenyl)methyl)-6-(trifluoromethyl)-1,2-dihydropyridine-3-carboxamide]", "IC50": "1230 nM"},
      {"compound": "CNCc1ccc(C(NC(=O)c2ccc(C(F)(F)F)[nH]c2=O)c2ccccc2)cc1", "note": "(centres unmarked) [Compound 102, N-((4-((methylamino)methyl)phenyl) (phenyl)methyl)-2-oxo-6-(trifluoromethyl)-1,2-dihydropyridine-3-carboxamide]", "IC50": "> 10000 nM"},
      {"compound": "CN(C)Cc1ccc(C(NC(=O)c2ccc(C(F)(F)F)[nH]c2=O)c2ccccc2)cc1", "note": "(centres unmarked) [Compound 103, N-((4-((dimethylamino)methyl)phenyl)(phenyl)methyl)-2-oxo-6-(trifluoromethyl)-1,2-dihydropyridine-3-carboxamide]", "IC50": "> 10000 nM"},
      {"compound": "O=C(NC(c1ccccc1)c1ccc(C2CCNCC2)cc1)c1ccc(C(F)(F)F)[nH]c1=O", "note": "(centres unmarked) [Compound 104, 2-oxo-N-(phenyl(4-(piperidin-4-yl)phenyl)methyl)-6-(trifluoromethyl)-1,2-dihydropyridine-3-carboxamide]", "IC50": "8650 nM"},
      {"compound": "O=C(NC(c1ccccc1)c1ccc(C2=CCNCC2)cc1)c1ccc(C(F)(F)F)[nH]c1=O", "note": "(centres unmarked) [Compound 105, 2-oxo-N-(phenyl(4-(1,2,3,6-tetrahydropyridin-4-yl)phenyl)methyl)-6-(trifluoromethyl)-1,2-dihydropyridine-3-carboxamide]", "IC50": "4280 nM"},
      {"compound": "CN1CCC(c2ccc(C(NC(=O)c3ccc(C(F)(F)F)[nH]c3=O)c3ccccc3)cc2)CC1", "note": "(centres unmarked) [Compound 106, N-((4-(1-methylpiperidin-4-yl)phenyl)(phenyl)methyl)-2-oxo-6-(trifluoromethyl)-1,2-dihydropyridine-3-carboxamide]", "IC50": "> 10000 nM"},
      {"compound": "O=C(NC(c1ccccc1)c1ccc2c(c1)CCCN2)c1ccc(C(F)(F)F)[nH]c1=O", "note": "(centres unmarked) [Compound 107, 2-oxo-N-(phenyl(1,2,3,4-tetrahydroquinolin-6-yl)methyl)-6-(trifluoromethyl)-1,2-dihydropyridine-3-carboxamide]", "IC50": "960 nM"},
      {"compound": "O=C(NC(c1ccccc1)c1ccc2c(c1)CNCC2)c1ccc(C(F)(F)F)[nH]c1=O", "note": "(centres unmarked) [Compound 108, 2-oxo-N-(phenyl(1,2,3,4-tetrahydroisoquinolin-7-yl)methyl)-6-(trifluoromethyl)-1,2-dihydropyridine-3-carboxamide]", "IC50": "> 10000 nM"},
      {"compound": "O=C(NC(c1ccccc1)c1ccc(CO)cc1)c1ccc(C(F)(F)F)[nH]c1=O", "note": "(centres unmarked) [Compound 109, N-((4-(hydroxymethyl)phenyl) (phenyl)methyl)-2-oxo-6-(trifluoromethyl)-1,2-dihydropyridine-3-carboxamide]", "IC50": "820 nM"},
      {"compound": "O=C(NC(c1ccccc1)c1ccc2c(c1)NCCC2)c1ccc(C(F)(F)F)[nH]c1=O", "note": "(centres unmarked) [Compound 110, 2-oxo-N-(phenyl(1,2,3,4-tetrahydroquinolin-7-yl)methyl)-6-(trifluoromethyl)-1,2-dihydropyridine-3-carboxamide]", "IC50": "840 nM"},
      {"compound": "O=C(NC(c1ccccc1)c1ccc2c(c1)CCNC2)c1ccc(C(F)(F)F)[nH]c1=O", "note": "(centres unmarked) [Compound 112, 2-oxo-N-(phenyl(1,2,3,4-tetrahydroisoquinolin-6-yl)methyl)-6-(trifluoromethyl)-1,2-dihydropyridine-3-carboxamide]", "IC50": "> 10000 nM"},
      {"compound": "O=C(NC(c1ccccc1)c1ccc2c(c1)CNC2)c1ccc(C(F)(F)F)[nH]c1=O", "note": "(centres unmarked) [Compound 113, N-(isoindolin-5-yl(phenyl)methyl)-2-oxo-6-(trifluoromethyl)-1,2-dihydropyridine-3-carboxamide]", "IC50": "> 10000 nM"},
      {"compound": "O=C(NC(c1ccccc1)c1ccc(C2CCN(CC(F)(F)F)CC2)cc1)c1ccc(C(F)(F)F)[nH]c1=O", "note": "(centres unmarked) [Compound 114, 2-oxo-N-(phenyl(4-(1-(2,2,2-trifluoroethyl)piperidin-4-yl)phenyl)methyl)-6-(trifluoromethyl)-1,2-dihydropyridine-3-carboxamide]", "IC50": "280 nM"},
      {"compound": "Cc1ccc(C(NC(=O)c2cc(C(F)(F)F)c[nH]c2=O)c2ccc(C)cc2)cc1", "note": "[Compound 116, N-(di-p-tolylmethyl)-2-oxo-5-(trifluoromethyl)-1,2-dihydropyridine-3-carboxamide]", "IC50": "> 10000 nM"},
      {"compound": "Cc1ccc(C(NC(=O)c2cc(C)c(C(F)F)[nH]c2=O)c2ccc(C)cc2)cc1", "note": "[Compound 117, N-(di-p-tolylmethyl)-6-(difluoromethyl)-5-methyl-2-oxo-1,2-dihydropyridine-3-carboxamide]", "IC50": "> 10000 nM"},
      {"compound": "C=Cc1cc(C(=O)NC(c2ccc(C)cc2)c2ccc(C)cc2)c(=O)[nH]c1C(F)(F)F", "note": "[Compound 118, N-(di-p-tolylmethyl)-2-oxo-6-(trifluoromethyl)-5-vinyl-1,2-dihydropyridine-3-carboxamide]", "IC50": "300 nM"},
      {"compound": "CCc1cc(C(=O)NC(c2ccc(C)cc2)c2ccc(C)cc2)c(=O)[nH]c1C(F)(F)F", "note": "[Compound 119, N-(di-p-tolylmethyl)-5-ethyl-2-oxo-6-(trifluoromethyl)-1,2-dihydropyridine-3-carboxamide]", "IC50": "250 nM"},
      {"compound": "Cc1ccc(C(NC(=O)c2cc(CCO)c(C(F)(F)F)[nH]c2=O)c2ccc(C)cc2)cc1", "note": "[Compound 120, N-(di-p-tolylmethyl)-5-(2-hydroxyethyl)-2-oxo-6-(trifluoromethyl)-1,2-dihydropyridine-3-carboxamide]", "IC50": "870 nM"},
      {"compound": "C=CCc1cc(C(=O)NC(c2ccc(C)cc2)c2ccc(C)cc2)c(=O)[nH]c1C(F)(F)F", "note": "[Compound 121, 5-allyl-N-(di-p-tolylmethyl)-2-oxo-6-(trifluoromethyl)-1,2-dihydropyridine-3-carboxamide]", "IC50": "220 nM"},
      {"compound": "Cc1ccc(C(NC(=O)c2c(C(F)(F)F)cc[nH]c2=O)c2ccc(C)cc2)cc1", "note": "[Compound 122, N-(di-p-tolylmethyl)-2-oxo-4-(trifluoromethyl)-1,2-dihydropyridine-3-carboxamide]", "IC50": "> 10000 nM"},
      {"compound": "Cc1cc(C(F)(F)F)[nH]c(=O)c1C(=O)NC(c1ccccc1)c1ccccc1", "note": "[Compound 123, N-benzhydryl-4-methyl-2-oxo-6-(trifluoromethyl)-1,2-dihydropyridine-3-carboxamide]", "IC50": "5790 nM"},
      {"compound": "Cc1cc(C(F)(F)F)[nH]c(=O)c1C(=O)NC(c1ccccc1)c1ccc(Cl)cc1", "note": "(centres unmarked) [Compound 124, N-((4-chlorophenyl)(phenyl)methyl)-4-methyl-2-oxo-6-(trifluoromethyl)-1,2-dihydropyridine-3-carboxamide]", "IC50": "1400 nM"}
    ]}
  ]
}
